The test system of series [1] is hemoglobin and human serum albumin. As to the kind of experiment: In vitro binding to hemoglobin and human serum albumin at physiologic ratio. To be noted: both proteins present in their respective physiologic ratio. The procedure: However, when the red blood cell compartment is considered, compound 12 unexpectedly partitions into blood to a far greater extent than compound 22 or compound 23. […] When the red blood cell/plasma ratio was measured at the peak concentration, compound 12 partitioned at a ratio of 70 to 1 into the erythrocytes attesting to its preferential partition into the compartment which contains the drug target hemoglobin. Supportive data was reported in an in vitro system measuring binding of compound 12 to hemoglobin and human serum albumin.

Series [2] addresses T1, HbS (Homo sapiens, UniProt P68871+P69905, E7V). The series can be described thus: 96-well oxygen dissociation assay (ODA). Format: biochemical.
The target in series [3] is T1, HbS. As to the kind of experiment: 96-well oxygen dissociation assay (ODA). Format: biochemical. An excerpt: Results: Table 4 below lists the change in oxygen affinity (Δoxy state). After two hours of passive deoxygenation, compound 12, at an equimolar concentration to Hb, increased the Hb oxygen affinity by 6-fold.
This is another data set of the same source.

Series [4] relates to sickle cell disease patient whole blood (ssRBCs). As to the kind of experiment: Viscosity assay, hypoxic sickle cell blood. Format: cell-based, human. To be noted: for Viscosity (ΔcP): [Hb] 1.5 mM, two hours of hypoxia. The procedure: Sickle cell disease patients develop anemia as a means for the circulatory system to compensate for increase in blood viscosity caused by the non-deformable sickle cell red blood cells (ssRBCs). The effects of 5-HMF, compound 5, compound 9, or compound 12 were tested on sickle cell disease patient blood rheology to determine if these compounds decrease the viscosity of ssRBCs that have undergone hypoxia. Using blood from patients with sickle cell disease, whole blood (30% hematocrit, ˜1.5 mM Hb) was incubated with 5-HMF, compound 5, compound 9, or compound 12 during exposure to two hours of hypoxia (2.4% 02). A cone-plate viscometer was used to measure the viscosity at shear rates ranging from 60 s^−1 to 415 s^−1.

A short description of series [5]: Rat pharmacokinetics and blood/plasma partitioning (Example 1). Format: in vivo, Rats (Sprague-Dawley). Conditions: for blood plasma ratio: whole blood and plasma, oral, 10 mg/kg. The procedure:
This experiment was established and used in order to assess the pharmacokinetic (PK) properties of the compounds.
Sample collection and data analysis: Rats (Sprague-Dawley, male, 8-12[…] weeks old) were dosed with one of three compounds corresponding to compound 12, compound 22 or compound 23. The rats received oral (10 mg/kg) or intravenous (1 mg/kg) doses of the compound. Rats were fasted overnight before the experiments and provided with food after the 2 hour sampling time point.
Blood samples were collected at different time points. Blood was anti-coagulated by 3.2% TSC (trisodium citrate) and a portion was separated into plasma fraction by centrifugation and removal of blood cells. Plasma and lysed blood samples were anal) zed for drug concentration using LC-MS/MS. PK parameters were calculated by non compartmental analysis of the concentration-time profiles using WinNonLin software (Pharsight, Mountain View, Calif.). Apparent elimination half-life (t1/2) values were calculated as ln(2)/k. Area under the concentration-time curve (AUC) values were estimated using the linear trapezoidal method. AUClast values were calculated from the dosing time to the last measurable concentration. AUCinf values were calculated as the sum of the corresponding AUClast and the ratio of the last detectable concentration divided by k. Plasma clearance (Cl) is calculated from Dose/AUCinf. Volume of distribution at steady state (Vss) is calculated from Mean Residence Timeinf×Clss. Maximum concentration (Cmax) and time to Cmax (Tmax) was recorded as observed. The blood/plasma partitioning ratio was calculated at each experimental time point.

Series [6] is described as follows: Mouse intravenous pharmacokinetics and blood/plasma partitioning. Format: in vivo. To be noted: mice; for blood plasma ratio: whole blood and plasma, iv. An excerpt: The ability of compound 12 to partition preferentially in red blood cells has also been confirmed in mice treated intravenously. […] Analogous to the measurements in rats, the volume of distribution (Vss) was low in mice (0.10). Thus, compound 12 is not expected to broadly distribute into extravascular space in mice.

The test system of series [7] is washed red blood cells. The series can be described thus: Reverse Hemox assay (OEC), washed red blood cells. It counts as cell-based, human. Here is the method: Oxygen Equilibrium Curves (OEC) of whole blood before and after treatment with different concentrations of compounds 12, 22 and 23 were performed as follows using a HEMOX analyzer (TCS Scientific, New Hope, Pa.). Blood samples from homozygous sickle cell patients were obtained though the Hemoglobinopathy Center at Children's Hospital Oakland Research Institute (CHORI) with Institutional Review Board approval. The hematocrit was adjusted to 20% using autologous plasma and the blood samples were incubated for 1 hour at 37° C. in absence or presence of compounds. 100 μl of these samples were added to 5 mL of Hemox butter (30 mM TES, 130 mM NaCl, 5 mM KCl, pH=7.4) at 37° C. and then transferred to the Hemox sample chamber. The samples were saturated with oxygen by flushing with compressed air for 10 minutes. The samples were then flushed with pure nitrogen and the respective absorbances of oxy- and deoxy-Hb are recorded as a function of the solution pO2. The oxygen equilibrium data were then fitted to the Hill Model to obtain values for p50. The deoxygenation curves for both whole blood alone (control) and whole blood in the presence of the compound were collected with the TCS software.
Reverse hemox assay was performed essentially as described in Example 2, above, using either washed red blood cells or whole blood.
Results: Table 4, below, indicates the percent change in p50 (delta p50%) for each compound tested. In the washed red blood cells (RBCs), 5-HMF, compound 5, and compound 12 (1 mM compound) gave p50 of 20, 9 and 7 mm Hg, respectively, compared to the control red blood cells (delta p50=30 mm Hg). To determine the effects of plasma proteins on compound activity. OECs were measured in whole blood from sickle cell disease patients. 5-HMF, compound 5, compound 9, and compound 12 gave p50 of 27, 18, 11 and 6 mm Hg, respectively, compared to the control blood p50 of 30 mm Hg.

Where [8] appears, read: ratio of compound 12 to Hb of 1:3.

Structures are written as SMILES. Bounds are passed on as bounds.

With `CC(C)n1nccc1-c1ncccc1COc1cccc(O)c1C=O` [Compound 12, 2-hydroxy-6-[[2-(2-propan-2-ylpyrazol-3-yl)pyridin-3-yl]methoxy] benzaldehyde], the “binding preference, hemoglobin versus human serum albumin” value in series [1] is “preferentially binding to hemoglobin”. The “Hb in ODA (Δoxy state)” value is recorded as 16 in series [2] ([Hb] 3 μM, [cmp] 1 μM) and 56 in series [3] ([Hb] 3 μM, [cmp] 3 μM). Further, the “improvement in oxygen affinity for Hb” value in series [2] (setting [8]) was “two-fold”. The “more oxygenated Hb present” value in series [2] (setting [8]) is 16%. Also, the “potency at increasing the oxygen affinity of HbS compared with 5-HMF” value in series [3] (96-well ODA) was “more potent at increasing the oxygen affinity of HbS than 5-hydroxy furfural”. In addition, the “increase of Hb oxygen affinity” value in series [3] (equimolar concentration to Hb, after two hours of passive deoxygenation) was 6 fold. For the same molecule, the “Viscosity (ΔcP)” value in series [4] ([cmp] 1.6 mM) is given as 2.0 cP; in series [4] ([cmp] 8 mM) it was over 2.4 cP. In series [4] (equimolar compound, hypoxia, 6.33 cP without compound), this molecule displayed a blood viscosity of 4.32 cP. The “level of compound in blood versus plasma, overall exposure” value in series [5] (dosed orally) turned out to be 55 fold. The “relative proportion in blood (as compared to plasma) at peak concentration (Cmax)” value in series [5] (dosed orally) is 21 fold. In addition, the Vd in series [5] (male, Sprague-Dawley, in vivo, oral 10 mg/kg or intravenous 1 mg/kg, read-out: Vss) amounted to 0.14 L/kg; in series [6] (in vivo, read-out: volume of distribution (Vss)), 0.1 L/kg. The bioavailability (in general, dose-corrected exposure relative to a reference, in per cent) in series [5] (male, Sprague-Dawley, in vivo, oral 10 mg/kg, intravenous 1 mg/kg) is 68.8%. In series [5] (male, Sprague-Dawley, plasma, oral 10 mg/kg or intravenous 1 mg/kg), the clearance came to 0.11 mL/min/kg. Also, the blood plasma ratio in series [5] (male, Sprague-Dawley, read-out: Blood/plasma (Ratio of exposure AUCINF)) turned out to be 55; in series [5] (male, Sprague-Dawley, read-out: Blood/plasma (Ratio of peak concentration)) it was 21; in series [6] (read-out: ratio of blood/plasma at overall exposure), 30; in series [6] (read-out: ratio of blood/plasma at peak in vivo concentration), 15.4. Moreover, the “red blood cell/plasma ratio at the peak concentration” value in series [5] (ratio to 1 into the erythrocytes) is on record as 70. For the same molecule, the “Washed RBC OEC (delta p50%)” value in series [7] ([Hb] 1 mM, [cmp] 1 mM) is recorded as 76%. For the same molecule, the p50 in series [7] (washed RBCs, 1 mM compound, control 30 mm Hg) was found to be 7 mm Hg.

(Values after patent US20160038474A1, “COMPOSITIONS AND METHODS FOR THE MODULATION OF HEMOGLOBIN (S)” (GLOBAL BLOOD THERAPEUTICS, INC., priority 2013, published 2016).)
